Test results from patent US11654196B2, “Dosing regimens for echinocandin class compounds” (priority 2012, dated 2023).
Like-named read-outs stand apart in the source and are kept apart here. *1 amine or outer side, *2 acyl side, *3 side chain or, on linkers, in order; H or OH if unused. Where a SMILES comes first, the peptide text is derived from it. Bridges are numbered along the chain shown (N, C = ends). [ ]: non-standard residue; d: D form. The star is where a group is joined. pTerphenylCO(4''-OnC5H11) = CCCCCOc1ccc(-c2ccc(-c3ccc(C(=O)*)cc3)cc2)cc1; Orn(4R-OH,5R-OH) = O=C([C@H](C[C@@H](O)[C@@H](O)N[*:3])N[*:1])[*:2]; hTyr(3S-OH,4S-OH) = N[C@H](C(=O)O)[C@H](O)[C@@H](O)c1ccc(O)cc1; Pro(3S-OH,4S-Me) = C[C@H]1CN[C@H](C(=O)O)[C@H]1O; Hyp = O=C(O)[C@@H]1C[C@@H](O)CN1

Tests used:
[1] = Man, literature values; cited from earlier work
[2] = Rat, literature values; cited from earlier work
[3] = Rabbit, literature values; cited from earlier work
[4] = Pharmacokinetics following intravenous administration in beagle dogs; type: in vivo; settings: 1.4 mg/kg IV slow bolus
Procedure: Echinocandin class compounds were administered to beagle dogs weighing approximately 6-10 kg. Each compound was dosed at 1.4 mg/kg in aqueous saline (with or without 0.5% Tween) over course of 1-10 minutes. […] The dogs were fasted at least 12 hours prior to each dosing and offered food after the 4-hour blood sample was taken; water was withheld for 1 hour prior to and 4 hours following each dosing event. The dose for each animal was based on its most recent body weight. The test article was injected intravenously via a catheter placed in the cephalic vein as a slow bolus.
Blood was collected via the jugular vein. All blood samples (1 mL each) were collected into K3EDTA tubes. Following blood collection, the samples were immediately inverted several times and were held on wet ice pending centrifugation. The samples were centrifuged within 30 minutes of collection under refrigeration (˜5° C. for 10 minutes at 2000 g) to obtain plasma. The plasma was frozen immediately on dry ice after separation. The plasma samples were stored at approximately ˜70° C. until analysis.
Plasma (100 μL) was precipitated with 400 μL of 0.1% formic acid in acetonitrile containing the internal standard (100 ng/mL pneumocandin). The samples were then capped and vortexed for about 30 seconds followed by centrifugation at 14,000 rpm at room temperature for 10 minutes. Following centrifugation 200 μL of supernatant was transferred to plastic autosampler vials containing 200 μL of 0.1% formic acid in water and vortexed. Samples were then analyzed by LCMSMS.
All pharmacokinetic calculations were performed using WinNonlin version 4.1 (Pharsight Corp) by noncompartmental analysis.

[5] = Dog, literature values; cited from earlier work
[6] = Mouse, literature values; cited from earlier work
[7] = Storage stability of solutions and lyophilized formulations (HPLC); type: physicochemical; settings: for Loss in potency: clear vial, ambient light, 4 months
[8] = Pharmacokinetics in chimpanzee, oral dose; type: in vivo
Procedure: Pharmacokinetic studies were performed in six adult female chimpanzees. Two chimpanzees received 1-mg/kg IV dose of compound 22 formulated in 5% dextrose (60-minute infusion). Two chimpanzees received 10-mg/kg oral dose of compound 22 formulated in 5% citric acid (oral bolus). Two chimpanzees received 1-mg/kg IV dose of anidulafungin formulated as package label (5% dextrose, 60-minute infusion). Plasma samples were collected from all chimps for 10 days to 22 days. PK curves are depicted in FIGS. 16A, 16B, and 18. All pharmacokinetic calculations were performed using WinNonlin version 4.1 (Pharsight Corp) by noncompartmental analysis.

[9] = Circulating half-life in mouse; type: in vivo; settings: assays conducted by applicant
[10] = Dissolution profile of tableted formulation 17; type: physicochemical
Procedure: A dissolution study of the tablet of formulation 17 was performed using 500 mL of 100 mM Acetate Buffer pH 5.2 as the medium. The method utilized Apparatus 2 with a paddle speed of 50 rpm, a tablet sinker, and the run time was 60 minutes. […] The HPLC method was a gradient method using an Agilent Zorbax Bonus-RP column (250×4.6 mm) (column temperature of 60° C., wavelength of 300 nm, with Mobile Phase A=33 mM sodium pentanesulfonate pH 4.0 and Mobile Phase B=acetonitrile). The samples were injected neat with an injection volume of 15 μL.

In the case of `CCCCCOc1ccc(-c2ccc(-c3ccc(C(=O)N[C@H]4C[C@@H](O)[C@@H](O)NC(=O)[C@@H]5[C@@H](O)[C@@H](C)CN5C(=O)[C@H]([C@@H](C)O)NC(=O)[C@H]([C@H](O)[C@@H](O)c5ccc(O)cc5)NC(=O)[C@@H]5C[C@@H](O)CN5C(=O)[C@H]([C@@H](C)O)NC4=O)cc3)cc2)cc1` [Anidulafungin, anidulafungin, reference compound] ({pTerphenylCO(4''-OnC5H11)}-[Orn(4R-OH,5R-OH)]T[Hyp][hTyr(3S-OH,4S-OH)]T[Pro(3S-OH,4S-Me)]; lactam 1-C), the Half-life [1] is given as 24 to 26 h, the Half-life [2] is given as 18 h and the Half-life [3] is given as 4 to 6 h. The Mean clearance [4] was 0.785 mL/min/kg, the T1/2 [4] was 11.6 h and the “Volume of Distribution” value [4] was 0.779 L/kg. The AUC ([4]; dog, in vivo, read-out: AUC) was 27800 ng·h/mL, the Cmax ([4]; dog, in vivo, read-out: Cmax) was 3230 ng/mL and the Half-life [5] was 15 h. For the same compound, the Half-life [6] was 14 to 20 h.
For `CC(=O)[O-].CCCCCOc1ccc(-c2ccc(-c3ccc(C(=O)NC4CC(O)C(OCC[N+](C)(C)C)NC(=O)C5C(O)C(C)CN5C(=O)C(C(C)O)NC(=O)C(C(O)C(O)c5ccc(O)cc5)NC(=O)C5CC(O)CN5C(=O)C(C(C)O)NC4=O)cc3)cc2)cc1` (stereo not shown) [Compound 22], the Loss in potency ([7]; 5% Dextrose Solution (1.3 and 1.1 mg/mL) and 0.9% Sterile Saline Solution (1.3 mg/mL), room temperature) was “less than 5%”, the Loss in potency ([7]; accelerated aging at 40° C., 5% Dextrose, 20 mM Acetate Buffer pH 4.5, 20 mM Lactate pH 6.0 (3.3 mg/mL)) was “less than 5%” and the Stability upon storage ([7]; as a solid or in solution) was “commercially acceptable stability”. The AUC [4] was 48700 ng·h/mL, the Cmax [4] was 1570 ng/mL and the Mean clearance [4] was 0.301 mL/min/kg. For the same compound, the T1/2 [4] was 53.1 h, the “Volume of Distribution” value [4] was 1.36 L/kg and the Oral bioavailability ([8]; chimpanzees, 10-mg/kg oral bolus in 5% citric acid) was 4.5%. The “Plasma half-life (PO)” value ([8]; chimpanzees, 10-mg/kg oral bolus in 5% citric acid, mean of 2 chimps) was 99 h, the “Oral bioavailability used to calculate human circulating concentrations” value ([8]; values based upon chimpanzee studies) was 5% and the Half-life [9] was 44 to 71 h. For the same compound, the “% Compound 22 Dissolved” value ([10]; tablet of formulation 17, 100 mM acetate buffer pH 5.2, 5 minutes) was 23%, the “% Compound 22 Dissolved” value ([10]; tablet of formulation 17, 100 mM acetate buffer pH 5.2, 10 minutes) was 48% and the “% Compound 22 Dissolved” value ([10]; tablet of formulation 17, 100 mM acetate buffer pH 5.2, 15 minutes) was 62%. The “% Compound 22 Dissolved” value ([10]; tablet of formulation 17, 100 mM acetate buffer pH 5.2, 30 minutes) was 93%, the “% Compound 22 Dissolved” value ([10]; tablet of formulation 17, 100 mM acetate buffer pH 5.2, 45 minutes) was 96% and the “% Compound 22 Dissolved” value ([10]; tablet of formulation 17, 100 mM acetate buffer pH 5.2, 60 minutes) was 97%.
